{
  "source": "ChEMBL document CHEMBL3046949",
  "about": "“New molecular scaffolds for the design of Alzheimers acetylcholinesterase inhibitors identified using ligand- and receptor-based virtual screening” (Med Chem Res, 2013)",
  "note": "pIC50, pKi: −log10 of the molar value.",
  "data": [
    {"biological_target": "T1, Acetylcholinesterase (Rattus norvegicus, UniProt P37136)", "T1 sequence (P37136 whole entry)": "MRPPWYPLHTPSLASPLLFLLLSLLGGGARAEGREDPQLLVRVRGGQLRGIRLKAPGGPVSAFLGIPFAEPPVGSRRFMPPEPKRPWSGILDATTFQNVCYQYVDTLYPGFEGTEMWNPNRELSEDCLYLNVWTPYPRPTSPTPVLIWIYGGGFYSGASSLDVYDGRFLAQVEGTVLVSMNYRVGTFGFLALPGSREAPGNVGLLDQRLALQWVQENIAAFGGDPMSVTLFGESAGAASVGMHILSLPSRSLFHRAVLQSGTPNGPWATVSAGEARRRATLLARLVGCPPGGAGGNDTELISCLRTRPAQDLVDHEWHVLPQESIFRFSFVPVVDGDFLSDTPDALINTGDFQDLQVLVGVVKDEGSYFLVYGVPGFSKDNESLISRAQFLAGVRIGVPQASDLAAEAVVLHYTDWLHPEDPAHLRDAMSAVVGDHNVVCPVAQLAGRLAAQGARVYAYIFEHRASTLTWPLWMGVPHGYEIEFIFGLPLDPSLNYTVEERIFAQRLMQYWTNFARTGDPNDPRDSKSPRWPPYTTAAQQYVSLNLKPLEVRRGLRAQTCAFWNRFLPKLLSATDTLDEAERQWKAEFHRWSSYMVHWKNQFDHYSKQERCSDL", "description": "Inhibition of acetylcholinesterase in Rattus norvegicus (rat) cortex by Ellman method", "values": [
      {"smiles": "CCN(CC)Cc1cccc(/C=C2\\Cc3cc(OC)c(OC)cc3C2=O)c1", "pIC50": 6.35},
      {"smiles": "COc1cc2c(cc1OC)C(=O)C(Cc1ccc(CN3CCCC3)cc1)C2", "note": "(stereo not drawn)", "pIC50": 6.81},
      {"smiles": "COc1cc2c(cc1OC)C(=O)/C(=C/c1ccc(CN3CCCCC3)cc1)C2", "pIC50": 6.99},
      {"smiles": "COc1cc2c(cc1OC)C(=O)/C(=C/c1cccc(CN3CCCCC3)c1)C2", "pIC50": 6.79},
      {"smiles": "COc1cc2c(cc1OC)C(=O)C(Cc1ccc(CN3CCCCC3)cc1)C2", "note": "(stereo not drawn)", "pIC50": 6.91},
      {"smiles": "CCN(C)Cc1ccc(/C=C2\\Cc3cc(OC)c(OC)cc3C2=O)cc1", "pIC50": 6.58},
      {"smiles": "COc1cc2c(cc1OC)C(=O)/C(=C/c1cccc(CN3CCCC3)c1)C2", "pIC50": 6.63}
    ]},
    {"biological_target": "Acetylcholinesterase (Homo sapiens, UniProt P22303)", "sequence (P22303 whole entry)": "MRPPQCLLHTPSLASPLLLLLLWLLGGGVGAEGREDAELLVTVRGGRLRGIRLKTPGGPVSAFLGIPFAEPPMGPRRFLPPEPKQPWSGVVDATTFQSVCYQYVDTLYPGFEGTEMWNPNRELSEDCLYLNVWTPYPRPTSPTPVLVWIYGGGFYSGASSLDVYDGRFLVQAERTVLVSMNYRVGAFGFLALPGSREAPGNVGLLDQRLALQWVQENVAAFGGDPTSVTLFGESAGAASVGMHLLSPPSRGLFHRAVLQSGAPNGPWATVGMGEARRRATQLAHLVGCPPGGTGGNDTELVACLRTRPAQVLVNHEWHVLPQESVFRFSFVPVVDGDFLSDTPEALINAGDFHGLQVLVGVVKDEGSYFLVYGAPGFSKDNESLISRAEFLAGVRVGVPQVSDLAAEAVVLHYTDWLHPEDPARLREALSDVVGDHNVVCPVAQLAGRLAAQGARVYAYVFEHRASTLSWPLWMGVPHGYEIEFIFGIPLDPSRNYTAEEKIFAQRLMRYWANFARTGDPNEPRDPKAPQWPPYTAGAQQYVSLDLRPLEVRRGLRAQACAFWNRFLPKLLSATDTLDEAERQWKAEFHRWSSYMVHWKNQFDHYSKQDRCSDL", "description": "Binding affinity to acetylcholinesterase (unknown origin)", "values": [
      {"smiles": "CCN(C)Cc1ccc(CC2Cc3cc(OC)c(OC)cc3C2=O)cc1", "note": "(stereo not drawn)", "pKi": 6.04},
      {"smiles": "COc1ccc(C(=O)NC2CCN(Cc3c(F)cccc3Cl)CC2)cc1OC", "pKi": 7.26},
      {"smiles": "COc1cc2c(cc1OC)C(=O)C(Oc1cccc(C(C)N(C)C)c1)C2", "note": "(stereo not drawn)", "pKi": 6.40},
      {"smiles": "COc1cc2c(cc1OC)C(=O)C(Oc1cccc(C(C)N3CCN(C)CC3)c1)C2", "note": "(stereo not drawn)", "pKi": 7.11},
      {"smiles": "CCN(CC)Cc1cccc(/C=C2\\Cc3cc(OC)c(OC)cc3C2=O)c1", "pKi": 6.63},
      {"smiles": "N/C(=N\\OC(=O)c1cnn(-c2ccc([N+](=O)[O-])cc2)c1C(F)(F)F)c1ccc(C(F)(F)F)cc1", "pKi": 5.68},
      {"smiles": "CCN(CC)Cc1ccc(OC2Cc3cc(OC)c(OC)cc3C2=O)cc1", "note": "(stereo not drawn)", "pKi": 5.87},
      {"smiles": "COc1cc2c(cc1OC)C(=O)C(Oc1ccc(C(C)N(C)C)cc1)C2", "note": "(stereo not drawn)", "pKi": 6.26},
      {"smiles": "CCN(CC)Cc1cccc(OC2Cc3cc(OC)c(OC)cc3C2=O)c1", "note": "(stereo not drawn)", "pKi": 5.80},
      {"smiles": "COc1cc2c(cc1OC)C(=O)C(Cc1ccc(CN3CCCC3)cc1)C2", "note": "(stereo not drawn)", "pKi": 6.11},
      {"smiles": "CCN(CC)Cc1ccc(/C=C2\\Cc3cc(OC)c(OC)cc3C2=O)cc1", "pKi": 6.34},
      {"smiles": "CCN(C)Cc1cccc(CC2Cc3cc(OC)c(OC)cc3C2=O)c1", "note": "(stereo not drawn)", "pKi": 6.30},
      {"smiles": "COc1cc2c(cc1OC)C(=O)C(Oc1cccc(CN3CCOCC3)c1)C2", "note": "(stereo not drawn)", "pKi": 6.10},
      {"smiles": "Cc1c(S(=O)(=O)c2ccc(Cl)cc2)csc1C(=O)NC1CCN(Cc2ccccc2)CC1", "pKi": 7.67},
      {"smiles": "COc1cc2c(cc1OC)C(=O)C(Oc1cccc(C(C)N3CCCC3)c1)C2", "note": "(stereo not drawn)", "pKi": 6.86},
      {"smiles": "COc1cc2c(cc1OC)C(=O)/C(=C/c1ccc(CN3CCCCC3)cc1)C2", "pKi": 7.02},
      {"smiles": "COc1cc2c(cc1OC)C(=O)C(Oc1ccc(C(C)N3CCN(C)CC3)cc1)C2", "note": "(stereo not drawn)", "pKi": 6.64},
      {"smiles": "COc1cc2c(cc1OC)C(=O)C(Oc1ccc(C(C)N3CCCC3)cc1)C2", "note": "(stereo not drawn)", "pKi": 6.39},
      {"smiles": "COc1cc2c(cc1OC)C(=O)/C(=C/c1cccc(CN3CCCCC3)c1)C2", "pKi": 7.15},
      {"smiles": "COc1cc2c(cc1OC)C(=O)C(Oc1ccc(CN3CCCCC3)cc1)C2", "note": "(stereo not drawn)", "pKi": 6.39},
      {"smiles": "COc1cc2c(cc1OC)C(=O)C(Oc1cccc(C(C)N3CCCCC3)c1)C2", "note": "(stereo not drawn)", "pKi": 7.42},
      {"smiles": "O=c1c(Cl)c(N2CCN(c3ccc(C(F)(F)F)cn3)CC2)cnn1-c1c(Cl)cc(C(F)(F)F)cc1Cl", "pKi": 5.54},
      {"smiles": "O=C(NC1CCN(Cc2ccccc2)CC1)c1ccc2c(c1)OCCCO2", "pKi": 7.02},
      {"smiles": "COc1cc2c(cc1OC)C(=O)C(Oc1cccc(CN(C)C)c1)C2", "note": "(stereo not drawn)", "pKi": 6.00},
      {"smiles": "COc1cc2c(cc1OC)C(=O)C(Cc1ccc(CN3CCCCC3)cc1)C2", "note": "(stereo not drawn)", "pKi": 7.13},
      {"smiles": "CC(C)(C)c1ccc(/C(N)=N/OC(=O)c2cnn(-c3ccc([N+](=O)[O-])cc3)c2C(F)(F)F)cc1", "pKi": 6.28},
      {"smiles": "CCN(C)Cc1ccc(/C=C2\\Cc3cc(OC)c(OC)cc3C2=O)cc1", "pKi": 6.04},
      {"smiles": "N/C(=N\\OC(=O)c1cnn(-c2ccc([N+](=O)[O-])cc2)c1C(F)(F)F)c1ccc(Cl)cc1", "pKi": 5.63},
      {"smiles": "O=C(Nc1ccc(OC(F)(F)F)cc1)N1CCCN(CCc2ccccc2)CC1", "pKi": 6.62},
      {"smiles": "COc1cc2c(cc1OC)C(=O)C(Oc1ccc(C(C)N3CCOCC3)cc1)C2", "note": "(stereo not drawn)", "pKi": 6.66},
      {"smiles": "COc1cc2c(cc1OC)C(=O)C(Oc1cccc(CN3CCCCC3)c1)C2", "note": "(stereo not drawn)", "pKi": 6.57},
      {"smiles": "COc1cc2c(cc1OC)C(=O)/C(=C/c1cccc(CN(C)C)c1)C2", "pKi": 7.21},
      {"smiles": "COc1cc2c(cc1OC)C(=O)C(Oc1cccc(C(C)N3CCOCC3)c1)C2", "note": "(stereo not drawn)", "pKi": 6.93},
      {"smiles": "CCN(CC)Cc1ccc(CC2Cc3cc(OC)c(OC)cc3C2=O)cc1", "note": "(stereo not drawn)", "pKi": 5.98},
      {"smiles": "O=C(Nc1ccc(OC(F)(F)F)cc1)OC1CN(C(c2ccccc2)c2ccccc2)C1", "pKi": 7.64},
      {"smiles": "O=C(CC1S/C(=N/c2ccc(C3CCCCC3)cc2)NC1=O)Nc1ccc(OC(F)(F)F)cc1", "note": "(stereo not drawn)", "pKi": 6.05},
      {"smiles": "CCN(C)Cc1cccc(/C=C2\\Cc3cc(OC)c(OC)cc3C2=O)c1", "pKi": 6.63},
      {"smiles": "COc1cc2c(cc1OC)C(=O)C(Cc1cccc(CN(C)C)c1)C2", "note": "(stereo not drawn)", "pKi": 6.28},
      {"smiles": "CSc1cccc(/N=C2\\NC(=O)C(CC(=O)Nc3ccc(F)c(F)c3)S2)c1", "note": "(stereo not drawn)", "pKi": 6.89},
      {"smiles": "COc1cc2c(cc1OC)C(=O)C(Cc1cccc(CN3CCCCC3)c1)C2", "note": "(stereo not drawn)", "pKi": 7.23},
      {"smiles": "COc1cc2c(cc1OC)C(=O)C(Oc1ccc(CN3CCCC3)cc1)C2", "note": "(stereo not drawn)", "pKi": 6.59},
      {"smiles": "COc1cc2c(cc1OC)C(=O)C(Oc1ccc(C(C)N3CCCCC3)cc1)C2", "note": "(stereo not drawn)", "pKi": 6.97},
      {"smiles": "COc1cc2c(cc1OC)C(=O)C(Oc1ccc(CN(C)C)cc1)C2", "note": "(stereo not drawn)", "pKi": 6.68},
      {"smiles": "O=[N+]([O-])c1ccc(OCC(O)CN2CCCN(c3nc4ccc(Cl)cc4s3)CC2)cc1", "note": "(stereo not drawn)", "pKi": 6.58},
      {"smiles": "COc1cc2c(cc1OC)C(=O)/C(=C/c1cccc(CN3CCCC3)c1)C2", "pKi": 6.90},
      {"smiles": "O=C(CN1CCN(Cc2ccccc2)CC1)Nc1ccc(C(F)(F)F)cc1Cl", "pKi": 7.32},
      {"smiles": "COc1cc2c(cc1OC)C(=O)C(Oc1cccc(CN3CCN(C)CC3)c1)C2", "note": "(stereo not drawn)", "pKi": 7.21},
      {"smiles": "CCN(CC)C(C)c1ccc(OC2Cc3cc(OC)c(OC)cc3C2=O)cc1", "note": "(stereo not drawn)", "pKi": 5.88},
      {"smiles": "COc1cc2c(cc1OC)C(=O)C(Oc1ccc(CN3CCOCC3)cc1)C2", "note": "(stereo not drawn)", "pKi": 6.29},
      {"smiles": "COc1cc2c(cc1OC)C(=O)C(Cc1cccc(CN3CCCC3)c1)C2", "note": "(stereo not drawn)", "pKi": 7.65},
      {"smiles": "COc1cc2c(cc1OC)C(=O)/C(=C/c1ccc(CN(C)C)cc1)C2", "pKi": 6.21},
      {"smiles": "COc1cc2c(cc1OC)C(=O)C(Oc1ccc(CN3CCN(C)CC3)cc1)C2", "note": "(stereo not drawn)", "pKi": 7.16},
      {"smiles": "CCN(CC)Cc1cccc(CC2Cc3cc(OC)c(OC)cc3C2=O)c1", "note": "(stereo not drawn)", "pKi": 7.66},
      {"smiles": "CC(CN1CCN(Cc2ccccc2)CC1)N(C(=O)c1cccc([N+](=O)[O-])c1)c1ccccn1", "note": "(stereo not drawn)", "pKi": 7.21},
      {"smiles": "COc1cc2c(cc1OC)C(=O)/C(=C/c1ccc(CN3CCCC3)cc1)C2", "pKi": 6.70},
      {"smiles": "CCN(CC)C(C)c1cccc(OC2Cc3cc(OC)c(OC)cc3C2=O)c1", "note": "(stereo not drawn)", "pKi": 6.06}
    ]}
  ]
}
